Here are results for 19 compounds from patent US20080305054A1, “Use of Glycosylated Flavanones for the Browning of Skin or Hair” (SYMRISE GMBH & CO. KG, priority 2004, published 2008).

Where two headings read alike, the source gives them in different places.

Usually IC50 stands for the concentration at which inhibition is half-maximal. The term EC50 denotes the concentration needed to bring the measured effect to its halfway point.

A short description of data set [1]: Cytotoxicity determination (MTT). The class given is cell-based, mouse. The conditions noted are these: mouse, B16V mouse melanoma cells; Table 3, repeat of the Table 1 values; read-out: IC50 cytotox. The method, then:
(§1) B16V mouse melanoma cells are disseminated in a 96-well microtitre plate in a concentration of 2×10^4 cells/well (B16V). After cultivation for 24 h at 37° C. and 5% CO2 in RPMI medium (B16V cells), enriched with 10% foetal calf serum, the medium is drawn off. Various concentrations of the test substances, dissolved in fresh medium enriched with 5% foetal calf serum, are added and incubated for a further 48 h. In parallel the cells are incubated with SDS as standard in concentrations of 0.01 mM, 0.1 mM, 1 mM and 10 mM. After incubation the medium is drawn off and the cells are incubated for 2 h with MTT (3-[4,5-dimethylthiazol-2-yl]2,5-diphenyl tetrazolium bromide). After extraction of the dye (MTT) with acetic acid SDS in DMSO (10 min), the absorption (A) is measured at 570 nm.
(§2) The mean and standard deviation of the controls, blanks and samples are calculated. The mean of the blank is subtracted from the means of the controls and samples. The viability of the cells is stated as a percentage relative to the controls (100%):
(§3) Viability (%)=[(Atest compound/Acontrol)×100]
(§4) The IC50 (mean inhibitory concentration) indicates the test substance concentration at which 50% of the cells are vital.

The test system of data set [2] is B16V mouse melanoma cells. The experiment in a line: Cytotoxicity determination (MTT). The class given is cell-based. The conditions noted are these: MTT viability, 48 h incubation, concentration at which 50% of the cells are vital. How it is done:
as §1, §2, §3, §4

The test system of data set [3] is B16V mouse melanoma cells. The data set can be described thus: Pigmenting effect (stimulation of pigmentation). The class given is cell-based. How it is done: mouse melanoma cells are disseminated in a 96-well microtitre plate in a concentration of 5×10^3 cells/well. After cultivation for 24 h at 37° C. and 5% CO2 in RPMI medium, enriched with 10% foetal calf serum, various concentrations of the test substances and 10 nM α-MSH (α-melanocyte stimulating hormone) are added and incubated for a further 96 h. […] The stimulation of pigmentation in the presence of the test compounds was calculated using the following equation: Stimulation of pigmentation (%)=[(A test compound/A control)×100]-100 From the stimulation of pigmentation (%) in a series of dilutions of test compounds, the EC50 for each test compound was calculated. This is the concentration of a test compound at which pigmentation is stimulated by 50%.

A further data set has as its system tyrosinase. The conditions noted are these: of 27 flavonoids tested; cited from earlier work.
Data set [4] relates to B16V melanoma cells. To be noted: cited from earlier work.
Data set [5] concerns B16V melanoma cells. To be noted: cited from earlier work. This is another data set of the same source.
Another data set deals with glucose absorption. The conditions noted are these: cited from earlier work.
Another data set concerns male rats. To be noted: cited from earlier work.
In data set [6] the test system is melanoma cells. The conditions noted are these: cited from earlier work.
In data set [7] the test system is melanoma cells. To be noted: cited from earlier work. The source holds these as a separate data set.
For a further data set, the system named is melanin synthesis. To be noted: cited from earlier work.
Setting [8] is: 96 h with 10 nM α-MSH, concentration at which pigmentation is stimulated by 50%, non-cytotoxic concentration range.
Where [9] appears, read: Table 3, repeat of the Table 2 values.
The mark [10] stands for this setting: Mus musculus, 96 h, 96 h with 10 nM α-MSH, concentration at which pigmentation is stimulated by 50%, non-cytotoxic concentration range.
Setting [11] is: Mus musculus, read-out: EC50 pigm. effect, Table 3, repeat of the Table 2 values.

On to `O=c1cc(-c2ccc(O)cc2)oc2cc(O)cc(O)c12` [Apigenin], for which the IC50 at 48 h in data set [1] was found to be 33 µM. In addition, the IC50 in [2] (Mus musculus, read-out: IC50) is 33 µM. In addition, the EC50 result in data set [3] (setting [8]) is “inactive”. In addition, the EC50 pigm. effect entry in data set [3] (setting [9]) is “inactive”.

Consider `COc1ccc([C@@H]2CC(=O)c3c(O)cc(O)cc3O2)cc1O` [Hesperetin], for which the IC50 at 48 h in data set [1] stood at 40 µM. In addition, the IC50 in data set [2] (Mus musculus, read-out: IC50) was 40 µM. Also, the EC50 entry in data set [3] (setting [8]) was “inactive”. The EC50 pigm. effect entry in data set [3] (setting [9]) was “inactive”.

As for `COc1ccc([C@@H]2CC(=O)c3c(O)cc(O[C@@H]4O[C@H](CO[C@@H]5O[C@@H](C)[C@H](O)[C@@H](O)[C@H]5O)[C@@H](O)[C@H](O)[C@H]4O)cc3O2)cc1O` [Hesperidin], the IC50 at 48 h in [1] amounted to 1500 µM. For the same compound, in data set [2] (Mus musculus, 48 h), the IC50 was above 1000 µM. The EC50 in [3] (setting [10]) was below 2 µM; in data set [3] (setting [11]) it was 1.5 µM.

In the case of `O=c1c(O)c(-c2ccc(O)cc2)oc2cc(O)cc(O)c12` [Kaempferol], the IC50 at 48 h in data set [1] is 43 µM. Further, in data set [2] (Mus musculus, read-out: IC50), the IC50 is 43 µM. In addition, the EC50 entry in data set [3] (setting [8]) was “inactive”. Further, the EC50 pigm. effect result in data set [3] (setting [9]) is “inactive”. Besides, in the data set with tyrosinase, the tyrosinase inhibition result is listed as “tyrosinase inhibition”.

For `O=c1cc(-c2ccc(O)c(O)c2)oc2cc(O)cc(O)c12` [Luteolin], the IC50 at 48 h in data set [1] is 37 µM. In addition, in data set [2] (Mus musculus, read-out: IC50), the IC50 worked out at 37 µM. Moreover, in data set [3] (setting [8]), the EC50 entry was “inactive”. In addition, the EC50 pigm. effect entry in data set [3] (setting [9]) was “inactive”. Further, in the data set with tyrosinase, the tyrosinase inhibition entry is listed as “tyrosinase inhibition”.

With `O=C1C[C@@H](c2ccc(O)cc2)Oc2cc(O)cc(O)c21` [Naringenin], the IC50 at 48 h in data set [1] is 30 µM. Moreover, the IC50 in data set [2] (Mus musculus, read-out: IC50) is 30 µM. For the same compound, in data set [3] (setting [8]), the EC50 entry is “inactive”. Moreover, the EC50 pigm. effect result in data set [3] (setting [9]) is “inactive”.

As for `C[C@@H]1O[C@@H](O[C@H]2[C@H](Oc3cc(O)c4c(c3)OC(c3ccc(O)cc3)CC4=O)O[C@H](CO)[C@@H](O)[C@@H]2O)[C@H](O)[C@H](O)[C@H]1O` (stereo partly drawn) [Naringin], the IC50 at 48 h in data set [1] was above 10000 µM. In addition, in [2], the IC50 is above 10000 µM. Besides, the EC50 in data set [3] (setting [11]) came out at 0.5 µM.

On to `COc1ccc(C2CC(=O)c3c(O)cc(OC4OC(CO)C(O)C(O)C4OC4OC(C)C(O)C(O)C4O)cc3O2)cc1O` (stereo not drawn) [Neohesperidin], for which the IC50 at 48 h in data set [1] was above 4000 µM. Besides, the IC50 in [2] was above 4000 µM. Also, the EC50 in data set [3] (setting [10]) is below 2 µM; in [3] (setting [11]), 1 µM.

For the compound `O=C(CCc1ccc(O)cc1)c1c(O)cc(O)cc1O[C@@H]1O[C@H](CO)[C@@H](O)[C@H](O)[C@H]1O` [Phloridzin], in the data set with B16V melanoma cells [4], the cytotoxicity entry is listed as “no cytotoxicity”. Further, the “melanin relative to the untreated control” value with B16V melanoma cells [5] (1 mM) was “+81%”. Also, in the data set with glucose absorption, the “inhibition of glucose absorption” value was “inhibitor of glucose absorption” and the toxicity to reproduction entry is given as “toxic to reproduction”.

Take `O=c1c(O)c(-c2ccc(O)c(O)c2)oc2cc(O)cc(O)c12` [Quercetin]: the hepatotoxic effect result in the data set on male rats is “hepatotoxic effect”. The IC50 at 48 h in [1] stood at 48 µM. The IC50 in [2] (Mus musculus, read-out: IC50) was 48 µM. The EC50 worked out at 15 µM in [3] (Mus musculus, 96 h with 10 nM α-MSH, concentration at which pigmentation is stimulated by 50%, non-cytotoxic concentration range, read-out: EC50) and 15 µM in data set [3] (Mus musculus, Table 3, repeat of the Table 2 values, read-out: EC50 pigm. effect). Further, in the data set with B16V melanoma cells [4], the maximum non-cytotoxic concentration is 0.003 mM. Further, the “melanin relative to the untreated control” value in the data set on B16V melanoma cells [5] (maximum non-cytotoxic concentration of 0.003 mM) is “+38%”. In addition, in the data set on tyrosinase, the tyrosinase inhibition result was “tyrosinase inhibition”.

Turning to `OC[C@H]1O[C@@H](Oc2cc3c(O)cc(O)cc3[o+]c2-c2ccc(O)c(O)c2)[C@H](O)[C@@H](O)[C@@H]1O` [cyanidin-3-β-D-glucoside], the “effect on melanin synthesis” value in the data set on melanoma cells [6] was “stimulates melanin synthesis”.

As for `O=c1c(-c2ccc(O)cc2)coc2cc(O)ccc12` [daidzein], in the data set with melanoma cells [7], the “effect on melanin production / melanogenesis” value is “no effect on melanogenesis”.

With `O=C(O[C@@H]1Cc2c(O)cc(O)cc2O[C@@H]1c1cc(O)c(O)c(O)c1)c1cc(O)c(O)c(O)c1` [epigallocatechin gallate], in the data set with melanin synthesis, the “effect on melanin synthesis” value was “inhibition of melanin synthesis”.

Regarding `O=c1c(-c2ccc(O)cc2)coc2cc(O)cc(O)c12` [genistein], the “effect on melanin production / melanogenesis” value with melanoma cells [7] is “increases melanin production”.

As for `O=c1c(O)c(-c2ccc(O)cc2O)oc2cc(O)cc(O)c12` [morin], the tyrosinase inhibition entry with tyrosinase is recorded as “tyrosinase inhibition”.

As to `O=c1c(O)c(-c2cc(O)c(O)c(O)c2)oc2cc(O)cc(O)c12` [myricetin], the tyrosinase inhibition result in the data set on tyrosinase is “tyrosinase inhibition”.

On to `O=C(CCc1ccc(O)cc1)c1c(O)cc(O)cc1O` [phloretin], for which, in the data set with B16V melanoma cells [5] (non-cytotoxic concentrations), the effect on melanogenesis result is listed as “ineffective”.

Take `O=c1c(O)cc([C@H]2Oc3cc(O)cc(O)c3C[C@H]2O)cc2c([C@H]3Oc4cc(O)cc(O)c4C[C@H]3O)cc(O)c(O)c12` [theaflavin]: in the data set on tyrosinase, the tyrosinase inhibition entry is reported as “tyrosinase inhibition”.

As to theaflavinmonogallate, the tyrosinase inhibition result with tyrosinase was “tyrosinase inhibition”.
